Results on four compounds are retold here after patent publication US9556098B2, “Reduced coenzyme Q10 crystal having excellent stability” (KANEKA CORPORATION, priority 2011, dated 2017).

What all share (assay type): physicochemical
Data set [1] can be described thus: Solubility of the crystal in hexane. Conditions: n-hexane, temperature of 25° C. As for the experimental part:
(§1) The inside of a 300 mL reaction flask (made of heat resistant glass) was replaced with nitrogen, and thereafter 40 g of commercially available reduced coenzyme Q10 (produced by Kaneka Corporation, conventionally known reduced coenzyme Q10 crystal) and 60 g of n-hexane were charged thereto and warmed to 40° C. with stirring to completely dissolve the reduced coenzyme Q10 in n-hexane. The solution was cooled to 25° C. at a cooling rate of 10° C./hour, then kept at 25° C. for 96 hours while being continuously stirred, and subjected to filtration and drying (drying under reduced pressure, 20 to 40° C.) to provide a crystal. From the result of analysis by DSC, the crystal was confirmed to have an endothermic peak indicating melting at 54.2° C. during temperature rise at a rate of 5° C./min, and an endothermic peak indicating melting at 51.6° C. during temperature rise at a rate of 1° C./min. In addition, as the result of analysis by powder X-ray diffraction, characteristic peaks at diffraction angles (2θ±0.2°) of 11.50°, 18.26°, 19.30°, 22.30°, 23.00° and 33.14° were observed as shown in FIG. 1. […] From the above analysis results, it was confirmed that the reduced coenzyme Q10 crystal obtained in the present Example was in a different crystal form from the conventionally known reduced coenzyme Q10 crystal. The solubility of the resulting crystal in hexane was measured, and found to be 9% by weight at a temperature of 25° C.

A short description of data set [2]: Solubility of the crystal in ethanol. The settings on record: temperature of 30° C.
A short description of data set [3]: Sticking property due to electrostatic charge during pulverization by a mortar. The settings on record: collection by stainless spatula. As for the experimental part:
as §1, with “The solubility of the resulting crystal in hexane was measured, and found to be 9% by weight at a temperature of 25° C.” left out

In the case of `COc1c(O)c(C)c(C/C=C(\C)CC/C=C(\C)CC/C=C(\C)CC/C=C(\C)CC/C=C(\C)CC/C=C(\C)CC/C=C(\C)CC/C=C(\C)CC/C=C(\C)CCC=C(C)C)c(O)c1OC` [reduced coenzyme Q10 crystal of the present invention], in data set [1], the solubility in hexane is listed as not above 15 % by weight. The solubility in ethanol entry in data set [2] is listed as “less than 4 % by weight”.
In the same order, the values of `COc1c(O)c(C)c(C/C=C(\C)CC/C=C(\C)CC/C=C(\C)CC/C=C(\C)CC/C=C(\C)CC/C=C(\C)CC/C=C(\C)CC/C=C(\C)CC/C=C(\C)CCC=C(C)C)c(O)c1OC` [conventionally known reduced coenzyme Q10 crystal] are not below 30 % by weight and not below 4 % by weight.
As to `COc1c(O)c(C)c(C/C=C(\C)CC/C=C(\C)CC/C=C(\C)CC/C=C(\C)CC/C=C(\C)CC/C=C(\C)CC/C=C(\C)CC/C=C(\C)CC/C=C(\C)CCC=C(C)C)c(O)c1OC` [Example 1, reduced coenzyme Q10], in data set [1], the solubility in hexane amounted to 9 % by weight. For the same compound, in data set [3], the “sticking property due to electrostatic charge” value is reported as “did not exhibit sticking property”.
In the same order, the values of `COc1c(O)c(C)c(C/C=C(\C)CC/C=C(\C)CC/C=C(\C)CC/C=C(\C)CC/C=C(\C)CC/C=C(\C)CC/C=C(\C)CC/C=C(\C)CC/C=C(\C)CCC=C(C)C)c(O)c1OC` [Comparative Example 1, reduced coenzyme Q10] are 36.5 % by weight and “exhibited remarkable sticking property”.
